Like-named read-outs stand apart in the source and are kept apart here.

One data set has as its system MCF7. Nature of the data set: Cell proliferation assay (CellTiter Glo), MCF7. It counts as cell-based. To be noted: for IC50: Homo sapiens. Here is the method:
(§1) Cell lines were obtained from ATCC. Estrogen was obtained from SIGMA, 4-hydroxytamoxifen was obtained from SIGMA, Bosutinib was used for these studies. Charcoal-stripped serum and phenol red-free medium was obtained from Invitrogen. CellTiter Glo was obtained from Promega.
(§2) Cell cultures. Proliferation assays with cells in complete fetal calf serum were performed with medium containing phenol red. For all assays examining estrogen-dependence, cells were cultured in phenol red-free medium; DMEM/F12 (MCF7), RPMI1640 (MDA-MB-361, T47D) MEM (BT20, MDA-MB-231) McCoys5A modified (SKBR3), Leibowitz' L15 medium supplemented with 10 ng/mL insulin (MDA-MB-435 and MDA-MB-468) with 10% fetal bovine serum supplemented with glutamine and gentamicin. For proliferation assays, trypsinized cells were subjected to three cycles of centrifugation and resuspension in phenol red-free medium supplemented with charcoal stripped medium (5% final), glutamine and Pen/Strep. Cells were plated on day 0, with or without estrogen (10 nM final concentration). On day 1, 4-hydroxytamoxifen and SKI-606 or DMSO were added as a serial dilution. Cells were incubated for 7 days, after which CellTiter Glo (Promega) was added as recommended by the manufacturer. After mixing and two hours incubation on the bench, plates were read on an Envision reader. […] The 10 uM data point was dropped for these two lines since there was a clear plateau prior to the sharp drop in luminescence observed at 10 uM compound. The IC50 was calculated using a floating minima corresponding to the lowest luminescence value at 5 uM.
Cell proliferation assays were performed in two formats; a three day proliferation assay in fully supplemented medium with phenol red, and a 7 day proliferation assay in phenol red free medium supplemented with charcoal-stripped medium. […] ER positive T47D cells were slightly more sensitive to SKI-606 in the presence of estrogen. BT20 cells were equally sensitive to SKI-606 in stripped serum medium, regardless of whether estrogen was present.
Proliferation data for SKI-606 in various breast tumor lines in complete medium (10% FCS) and charcoal stripped serum with no phenol red (no E2, E2) with and without 10 nM estrogen. The complete medium data were obtained in 3-day assays, while stripped serum assays were extended for 7 days with one change of medium at day 5. The IC50 values for the BT20 line was calculated using the “plateau” cell number evident at 5 μM SKI-606.

The next data set deals with MDA-MB-468 (ER neg). Nature of the data set: Cell proliferation assay, MDA-MB-468. The following applies: Homo sapiens, MDA-MB-468, 72 h; 3 Day assay, complete medium (10% FCS). In kind it is cell-based. Here is the method: as §1
as §2, with “Cells were incubated for 7 days, after which CellTiter Glo (Promega) was added as recommended by the manufacturer.” left out, “The IC50 was calculated using a floating minima corresponding to the lowest luminescence value at 5 uM.” left out

Another data set relates to ER. Nature of the data set: ER signaling in MCF-7 cells (ERE-tk-luciferase, ERα levels). In kind it is cell-based. Here is the method: Radis Procedure 2484, MCF-7 model was used for the measurement of in vitro estrogenic activity. MCF-7 cells were passaged twice a week in D-MEM/F-12 medium containing 10% (v/v) heat-inactivated fetal bovine serum, 1% (v/v) Penicillin-Streptomycin, and 2 mM glutaMax-1. The cells were plated with growth medium at 25,000/well into 96 well plates and incubated at 37° C. overnight.
The cells were infected for 2 hr at 37° C. with 50 μl/well of a 1:10 dilution of adenovirus 5-ERE-tk-luciferase in phenol red-free D-MEM/F-12 medium containing 10% (v/v) heat-inactived charcoal-stripped fetal bovine serum, 1% (v/v) Penicillin-Streptomycin, 2 mM glutaMax-1, 1 mM sodium pyruvate. The wells are then washed once with 150 μl of experimental medium. Finally, the cells are treated for 24 hr at 37° C. in replicates of 8 wells/treatment with 150 μl/well of vehicle (<0.1% v/v DMSO) or compound that is diluted >1000-fold into experimental medium. SKI-606 was tested in a dose response assay in the presence of 0.1 nM 17β-estradiol to stimulate ERE-luc.
After treatment, the cells are lysed on a shaker for 15 min with 25 μl/well of 1× cell culture lysis reagent (Promega Corporation). The cell lysates (20 μl) were transferred to a 96 well luminometer plate, and luciferase activity were measured in a MicroLumat LB 96 P luminometer (EG & G Berthold) using 100 μl/well of luciferase substrate (Promega Corporation). […]

A further data set can be described thus: clinical. The following applies: for AUC: Mean steady state AUC; for Cmax: Mean steady state Cmax. Here is the method:
A phase 1 single-agent trial of bosutinib to determine the safety, tolerability, and pharmacokinetics of orally administered bosutinib in subjects with advanced-stage, previously treated, solid tumors is currently ongoing. […] Subjects are continued on bosutinib until disease progression, or the occurrence of a significant toxicity considered possibly related to bosutinib. Dosing was started at 50 mg per day. Subsequent dose levels studied have included 100 mg, 200 mg, 300 mg, 400 mg, 500 mg and 600 mg. Safety is assessed for 21 days in 3 to 6 subjects before beginning the cohort at the next incremental dose.

Broadly, the IC50 is the midpoint of a concentration-inhibition curve. A word on the Tmax: it is the time at which the peak concentration occurs. Usually half-life stands for how long it takes for the measured level to halve. Lower therefore signals fast loss. As usually defined, the AUC is concentration integrated over time. The low end stands for less exposure, the high end for more exposure. As usually defined, the Cmax is the highest concentration seen after dosing. In the case of `COc1cc(Nc2c(C#N)cnc3cc(OCCCN4CCN(C)CC4)c(OC)cc23)c(Cl)cc1Cl` [bosutinib], the IC50 in the data set with MCF7 (MCF7, 72 h, 3 Day assay, complete medium (10% FCS), read-out: IC50 (uM) 10% FCS) was found to be 6.5 µM. The IC50 in the data set with MCF7 (MCF7, 168 h, 7 Day assay, charcoal stripped serum, no phenol red, 10 nM estrogen, read-out: IC50 (uM) E2) was 0.86 µM. The concentration for half-maximal inhibition (IC50) in the data set on MCF7 (MCF7, 168 h, 7 Day assay, charcoal stripped serum, no phenol red, without estrogen, cells did not grow well, data less reliable, read-out: IC50 (uM) no E2) is 0.08 µM. Besides, the “effect on estrogen-dependent and estrogen-independent growth” value in the data set with MCF7 (MCF7) is “inhibited estrogen-dependent and estrogen-independent growth”. In the data set with MDA-MB-468 (ER neg), this compound had an IC50 of 5 µM. The “genomic and non-genomic signaling by ER” value with ER is “inhibits both genomic and non-genomic signaling by ER”. For the same compound, in “clinical” (human, in vivo, po), the “Mean steady state AUC” value worked out at 3.66 µg·h/mL, the “Mean steady state Cmax” value was found to be 0.2 µg/mL, the “Multiple-dose exposure versus single-dose exposure” value is recorded as 2-3 fold and the Tmax lay in the range of 3 to 6 h. In the data set “clinical” (human, in vivo, po), the half-life is 22 to 25 h, the AUC was found to be 2.58 µg·h/mL and the highest concentration (Cmax) amounted to 0.157 µg/mL. For the same compound, in “clinical” (human, in vivo, po, 600 mg), the AUC came to 3.36 µg·h/mL and the concentration peaked (Cmax) at 0.208 µg/mL. In the data set “clinical” (in vivo, po), the “Dose limiting toxicities observed” value was “nausea, vomiting, diarrhea, and rash”. Also, the “protocol-defined maximum tolerable dose” value in “clinical” (subjects with multiple-relapsed solid tumors, oral) stood at 500 mg daily.

The record behind these values is US20100069340A1, “PHARMACEUTICAL COMPOSITIONS OF AN SRC KINASE INHIBITOR AND AN AROMATASE INHIBITOR” (Wyeth, priority 2008, published 2010).
